Measurements reported in patent publication US5948662A, “Bacillus-derived transglutaminase” (Ajinomoto Co., Inc., priority 1995, dated 1999).
Where two headings read alike, the source gives them in different places.

What was measured:
[1] = biological target: T1, Bacillus subtilis AJ1307-derived TG (TG-1) (Bacillus subtilis, UniProt P40746, D22N); format: biochemical; conditions: for Influence of reagent on TG activity (in words): TG-1, summary of Table 1; for Remaining Activity (relative value): pH 7.5, 37° C.
T1 construct: The thus-obtained cells were used as the starting material, from which TG was purified in the manner mentioned below; endogenous in cells; host or cells: Bacillus subtilis AJ1307 (enzyme solubilized from spores and purified to a single band)
T1 sequence (P40746 whole entry D22N): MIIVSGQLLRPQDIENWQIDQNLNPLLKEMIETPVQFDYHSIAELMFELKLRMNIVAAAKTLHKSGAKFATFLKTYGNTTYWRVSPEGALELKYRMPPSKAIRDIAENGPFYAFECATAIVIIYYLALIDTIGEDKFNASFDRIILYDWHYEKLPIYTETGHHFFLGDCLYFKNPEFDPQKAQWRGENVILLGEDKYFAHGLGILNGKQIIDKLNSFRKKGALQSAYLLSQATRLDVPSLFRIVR
Experimental: The TG activity of the enzyme liquids obtained below was determined according to an enzymatic activity measuring method, which is as follows. […] The thus-counted value was referred to as the TG activity of the enzyme liquid.
Effects, if any, of various reagents on the TG activity were checked. The reagents tested herein were N-ethylmaleimide (NEM), cystamine, phenylmethanesulfonyl fluoride (PMSF), ammonium sulfate, sodium sulfate, EDTA, EGTA, calcium chloride, dithiothreitol (DTT) and 2-mercaptoethanol (2-ME). All were bought from Nacalai Tesque, Inc.
As the enzyme source, the previously-prepared pure TG fraction was used at a concentration of 2 μg/ml. The protein concentration was measured, using a protein assay kit (produced by Bio Rad Co.).
To measure the TG activity, the above-mentioned method of using ^1 4C-labeled putrescine and dimethylcasein as the substrates (at pH of 7.5 and at 37° C.) was employed. As the enzyme source, the previously-prepared pure TG fraction was used at a concentration of 2 μg/ml. The reaction was conducted at 37° C. for 30 minutes.
The TG activity was measured in the following manner. The above-mentioned pure TG fraction was mixed with each one of the reagents that had been adjusted to have a suitable concentration and then left on ice for 30 minutes. The solution of the enzyme source thus reacted with each reagent was adjusted to have a TG concentration of 2 μg/ml and then reacted with the substrates, whereupon the TG activity still remained in the resulting reaction system was measured (at pH of 7.5 and at 37° C.).

[2] = test system: Bacillus subtilis-derived TG reported by Ramanujam et al.; conditions: cited from earlier work
[3] = biological target: T2, Bacillus subtilis AJ12866-derived TG (TG-2) (Bacillus subtilis, UniProt P40746); assay: Influence of reagents on TG activity (TG active fraction after gel permeation, TG-2); conditions: for Remaining Activity (relative value): control = 100
T2 sequence (P40746 1-245): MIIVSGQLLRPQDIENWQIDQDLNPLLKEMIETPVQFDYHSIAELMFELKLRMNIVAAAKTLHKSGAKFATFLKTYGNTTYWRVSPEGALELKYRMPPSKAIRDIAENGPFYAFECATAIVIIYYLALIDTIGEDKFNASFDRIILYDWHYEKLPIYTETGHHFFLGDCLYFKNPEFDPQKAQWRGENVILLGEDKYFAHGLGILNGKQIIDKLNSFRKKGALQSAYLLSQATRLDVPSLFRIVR
Experimental: The method for measuring the enzymatic activity as employed herein was as follows. 50 μl of a reaction system (100 mM Tris-HCl, pH 7.5, 6.3 mg/ml dimethylcasein, 10 nM ^14 C-putrescine, 1.2 μCi) containing 10 μl of the enzyme sample to be measured was kept at 37° C. for 30 minutes thereby to make the substrates reacted. After the reaction, 40 μl of the reaction mixture was adsorbed onto filter paper. In the reaction mixture, the putrescine was reacted with the dimethylcasein due to the catalysis of the TG therein. A bonded reaction product of the putrescine and the dimethylcasein was adsorbed on the filter paper. By adding 10% TCA thereto, the bonded reaction product was fixed on the filter paper. Then, the filter paper was washed three times with a 5% TCA solution, and the ^1 4C radioactivity as fixed to the filter paper was counted with a liquid scintillation counter. The value thus measured corresponds to the relative TG activity of the enzyme sample.
The cells of Bacillus subtilis AJ12866 strain were suspended in a reaction system (0.5 mg/ml lysozyme, 20 μg/ml DNase I, 0.1 M Tris-HCl (pH 7.5), 2 mM DTT, 1 mM EDTA, 2 mM PMSF) and reacted on ice for 2 hours whereby the cells were lysed. The resulting reaction mixture was centrifuged at 20,000×g for 20 minutes, and the precipitate fraction thus obtained was suspended in a washing system (0.1 M Tris-HCl (pH 7.5), 1 mM EDTA, 2 mM PMSF). The resulting suspension was centrifuged, and the precipitate was collected. This operation was repeated for a total of two times.
The thus-obtained precipitate fraction was suspended in a buffer (0.1 M sodium carbonate (pH 10), 1 mM EDTA, 2 mM PMSF) and left at 37° C. for 30 minutes. Meanwhile, a part of the substances that had existed in the precipitate fraction were dissolved in the buffer and the TG activity was transferred to the soluble fraction. […] The pH of the supernatant was adjusted to 6.0 by adding acetic acid thereto. This is referred to as a crude enzyme liquid. The crude enzyme liquid was concentrated by ultrafiltration and then dialyzed against a buffer (50 mM Tris-HCl (pH 7.5), 0.1 M NaCl), whereby the buffer was exchanged. The resulting crude enzyme liquid was subjected to gel permeation, and the TG active fraction thus eluted was collected. The enzymatic properties of the fraction were measured.

[4] = agent concentration 10 (unit not given), control = 100
[5] = agent concentration 5 (unit not given), control = 100

Row | SMILES | Influence of reagent on TG activity (in words) [1] | Remaining Activity (relative value) [1, 4] | Influence of reagent on TG activity (in words) ([3]; TG-2, Ca^2+ at 5 mM or more) | Remaining Activity (relative value) ([3]; agent concentration 10 mM) | other results
1 | O[C@H](CS)[C@H](O)CS (racemic) [DTT, dithiothreitol] | not inhibited | 119 | not inhibited | – | Influence of reagent on the activity of the reported TG (in words) [2]: inhibited; Increase of TG activity in the presence of DTT ([3]; 1 mM of DTT): ≥ 1.5 times
2 | OCCS [2-ME, 2-mercaptoethanol] | not inhibited | 111 | – | 122 | –
3 | N.N.O=S(=O)(O)O [(NH4)2 SO4, ammonium sulfate] | inhibited | 1 | greatly inhibited | 3 | –
4 | [Ca+2].[Cl-].[Cl-] [CaCl2, calcium chloride] | – | – | not inhibited | – | TG activity maintained in the presence of Ca2+ ([1]; Ca2+ of not less than 5 mM): not less than 50%; Remaining Activity (relative value) [1, 5]: 65; Influence of Ca^2+ on the reported TG (in words) ([2]; Ca^2+ of 5 mM or more): inhibited
5 | O=C(O)CN(CCN(CC(=O)O)CC(=O)O)CC(=O)O [EDTA, ethylenediamine-tetraacetic acid] | not inhibited | 107 | – | – | Influence of reagent on TG activity (in words) [3]: almost no influence
6 | O=C(O)CN(CCOCCOCCN(CC(=O)O)CC(=O)O)CC(=O)O [EGTA] | not inhibited | 98 | – | 94 | Influence of reagent on the activity of the reported TG (in words) [2]: greatly inhibited
7 | CCN1C(=O)C=CC1=O [NEM, N-ethylmaleimide] | inhibited | – | greatly inhibited | – | Remaining Activity (relative value) ([1]; agent concentration 1 (unit not given), TG not reacted with reagent = 100, 30 min on ice with reagent): 17
8 | O=S(=O)([O-])[O-].[Na+].[Na+] [Na2 SO4, sodium sulfate] | not inhibited | 87 | – | 85 | –
9 | O=S(=O)(F)Cc1ccccc1 [PMSF, phenylmethanesulfonyl fluoride] | – | – | – | – | Remaining Activity (relative value) [1, 5]: 89; Remaining Activity (relative value) ([3]; agent concentration 5 mM): 95
10 | NCCSSCCN [cystamine] | inhibited | – | greatly inhibited | – | Remaining Activity (relative value) ([1]; agent concentration 2 (unit not given), control = 100): 0
